Reference: patent US8809341B2, “2,4-pyrimidinediamine compounds and uses as anti-proliferative agents” (Rigel Pharmaceuticals, Inc., priority 2003, dated 2014)
Read-outs that look alike come from different tables or passages of the source.

Tests used:
MCF-7 = test: in vitro antiproliferation assay, MCF-7 (breast/ER positive); assay type: cell-based
Protocol: (§1) The IC50 values of various compounds against a various different tumor cell lines were determined using standard in vitro antiproliferation assays. The tumor cell lines tested were as follows: A549 (lung); H1299 (lung), ACHN (kidney/p53 wt), CAKI (renal cell carcinoma), NCI-H460 (lung); HCT116 (colon/p53w0; HELA (cervix/p53 wt), HUH7 (liver/p53 wt), HUVEC (primary endothelial), LNCAP (prostate), HT-29 (colon); MCF-7 (breast); MCF-7 (breast/ER positive), MDA MB435S (breast); MDA MB231 (breast/ER negative), DU145 (prostate); BxPC-3 (pancreatic); SKOV-3 (ovarian); HepG2 (hepatic), NDHF primary normal human dermal fibroblast), SKMEL28 (breast/p53mut), SKMEL5 (breast/p53 wt), U20S (bone) and PC3 (prostate). […] A blank indicates the specified compound was not tested against the specified cell line.
(§2) Many of the compounds were tested against other cell lines. Their activity is reported in TABLE 15, below, where +”, “−”, “−/+” or “+/−” values are as described for TABLES 1-14. Where the cell line includes a value in a parenthetical, the value indicates the seeding density at which the assay was performed

HUH7 = test: in vitro antiproliferation assay, HUH7 (liver/p53 wt); assay type: cell-based
Protocol: as §1, §2

SKMEL5 = test: in vitro antiproliferation assay, SKMEL5; assay type: cell-based
Protocol: as §1, §2

U20S = test: in vitro antiproliferation assay, U20S (bone); assay type: cell-based
Protocol: as §1, §2

HUVEC = test: in vitro antiproliferation assay, HUVEC (primary endothelial); assay type: cell-based
Protocol: as §1, §2

NDHF = test: in vitro antiproliferation assay, NDHF (primary normal human dermal fibroblast); assay type: cell-based
Protocol: as §1, §2

MDA MB231 = test: in vitro antiproliferation assay, MDA MB231 (breast/ER negative); assay type: cell-based
Protocol: as §1, §2

HCT116 = test: in vitro antiproliferation assay, HCT116 (colon); assay type: cell-based; details: HCT116 (colon), read-out: HCT116
Procedure, shortened: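 IC50 is the reported value, taken from a conventional in vitro antiproliferation assay. Seeding density is indicated by any parenthetical figure attached to the cell line.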

A549 cells = test: in vitro antiproliferation assay, A549 (lung); assay type: cell-based; details: IC50 class against A549 (lung) tumor cells
Procedure, shortened: (§3)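 Standard in vitro antiproliferation assays on tumour cell lines, including A549 and H1299 (both lung); IC50 values determined.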

HELA = test: in vitro antiproliferation assay, HELA (cervix/p53 wt); assay type: cell-based
Protocol: as §1, §2

H1299 cells = test: in vitro antiproliferation assay, H1299 (lung); assay type: cell-based; details: IC50 class against H1299 (lung) tumor cells
Procedure, shortened: as §3

LNCAP = test: in vitro antiproliferation assay, LNCAP (prostate); assay type: cell-based
Protocol: as §1, §2

CAKI = test: in vitro antiproliferation assay, CAKI (renal cell carcinoma); assay type: cell-based
Protocol: as §1, §2

SKMEL28 = test: in vitro antiproliferation assay, SKMEL28 (breast/p53mut); assay type: cell-based
Protocol: as §1, §2

ACHN = test: in vitro antiproliferation assay, ACHN (kidney/p53 wt); assay type: cell-based
Protocol: as §1, §2

[1] = system: tumors generated from A549 cells; test: in vivo xenograft experiment, tumors generated from A549 cells; details: mice
Protocol: Compounds 107, 858, 164, 211 and 156 were tested for their ability to shrink tumors generated from A549 cells in standard xenograft experiments. Compounds 141 and 211 were tested against H1299 tumors.

COC(=O)N1CCN(c2ccc(Nc3ncc(F)c(NC4CCC4)n3)cc2)CC1 [compound 107]
IC50 (MCF-7; MCF7, seeding density 2K, read-out: MCF7(2K)): ≤ 20 µM | IC50 (MCF-7; MCF7, seeding density 4K, read-out: MCF7(4K)): ≤ 20 µM | IC50 (HUH7): ≤ 20 µM | IC50 (SKMEL5): ≤ 20 µM | IC50 (U20S): ≤ 20 µM | IC50 (HUVEC): ≤ 20 µM | IC50 (NDHF): ≤ 20 µM | IC50 (MDA MB231; MDA-MB-231, seeding density 2K, read-out: MDA-MB-231(2K)): ≤ 20 µM | IC50 (MDA MB231; MDA-MB-231, seeding density 4K, read-out: MDA-MB-231(4K)): ≤ 20 µM | IC50 (HCT116): > 20 µM | IC50 (A549 cells): ≤ 20 µM | IC50 (HELA): ≤ 20 µM | IC50 (H1299 cells): ≤ 20 µM | IC50 (LNCAP): ≤ 20 µM | IC50 (CAKI): ≤ 20 µM | IC50 (SKMEL28): ≤ 20 µM | IC50 (ACHN): ≤ 20 µM

CN1CCN(c2ccc(Nc3ncc(F)c(NC4CCCCC4)n3)cc2)CC1.Cl [compound 156]
Preliminary Results: reduction in tumor size ([1]; 50 mg/kg Bid, daily, 0.9% Saline): 60.4%

Fc1cnc(Nc2cccc(-c3ncco3)c2)nc1Nc1cc(C2CC2)[nH]n1 [compound 211]
IC50 (MCF-7; Homo sapiens, MCF7, seeding density 2K, read-out: MCF7(2K)): ≤ 20 µM | IC50 (MCF-7; Homo sapiens, MCF7, seeding density 4K, read-out: MCF7(4K)): ≤ 20 µM | IC50 (MDA MB231; Homo sapiens, MDA-MB-231, seeding density 2K, read-out: MDA-MB-231(2K)): ≤ 20 µM | IC50 (MDA MB231; Homo sapiens, MDA-MB-231, seeding density 4K, read-out: MDA-MB-231(4K)): ≤ 20 µM | IC50 (HCT116; Homo sapiens, HCT-116): ≤ 20 µM | IC50 (A549 cells; Homo sapiens): ≤ 20 µM | IC50 (HELA; Homo sapiens): ≤ 20 µM | IC50 (H1299 cells; Homo sapiens, NCI-H1299): ≤ 20 µM | Preliminary Results: reduction in tumor size ([1]; 25 mg/kg bid, 100% DMSO): 23.2%
